Data on 5 molecules can be found in patent US11883526B2 (priority 2019, dated 2024).

Read-outs that look alike come from different tables or passages of the source. Marks after values point to notes of the source that are not given here.

By Cmax is commonly meant the peak of the concentration-time curve.

The subject of one data set is MDD/TRD subjects. The following applies: quetiapine 52-week safety study; Symbyax over 76 weeks; cited from earlier work.
Data set [1] in a line: Pharmacokinetics of intranasal esketamine in healthy subjects (Example 9). The following applies: for AUClast / AUC∞ / t1/2 / Cmax / Metabolite/Parent Ratio AUClast / Metabolite/Parent Ratio Cmax / Metabolite/Parent Ratio AUC∞: mean; for tmax: median; for Metabolite/Parent Ratio AUClast / Metabolite/Parent Ratio Cmax / Metabolite/Parent Ratio AUC∞: noresketamine/esketamine. As for the experimental part: This was an open-label, single-center study. The subjects were healthy Caucasian men and women, 20 to 55 years of age, inclusive. […] The solution consisted of:
Blood samples (4 mL each) for determination of esketamine and noresketamine plasma concentrations were collected into the appropriate collection tube (e.g., Vacutainer®) at timepoints 0.00, 0.12, 0.20, 0.37, 0.53, 0.67, 0.83, 1.00, 1.25, 1.50, 2.00, 3.00, 4.00, 6.00, 9.00, 12.00, 18.00, and 24.00 h. The total amount of blood to be drawn for clinical laboratory tests and PK evaluations is approximately 327 mL.
Plasma samples were analyzed for esketamine and noresketamine concentrations using the validated, specific and sensitive liquid chromatography coupled to tandem mass spectrometry (LC-MS/MS) achiral method of Example 8.
Serial PK blood samples (4 mL each) were collected for a 24-hour period from each subject (Periods 1, 2, and 3). […] Statistical Methods 1.6.4.1. Sample Size
The following key parameters of esketamine and noresketamine in plasma were calculated using noncompartmental methods and actual sampling times: Cmax, tmax, AUClast, AUC∞, t1/2,λ, and λz.

Data set [2] concerns female Sprague-Dawley rats. The experiment in a line: Single dose neurotoxicity study: mortality, clinical observations, body weight. It is filed as in vivo, rat. As for the experimental part: The injection volume was 5 mL/kg.
Body weight and body weight gain were measured daily.

The text on data set [3]:
This example provides an LC-MS/MS method for the determination of ketamine and norketamine in sodium heparin human plasma using ketamine-d4 and norketamine-d4 as the respective internal standards (IS).

[4] abbreviates: noresketamine after esketamine 28 mg.
Setting [5] is: noresketamine after esketamine 56 mg.
Setting [6] is: noresketamine after esketamine 56 mg, n = 13.
Where [7] appears, read: noresketamine after esketamine 84 mg.
The mark [8] stands for this setting: noresketamine after esketamine 84 mg, n = 12.
Where [9] appears, read: single dose study, (+)MK-801 maleate 1 mg/kg subcutaneous.

With `OCCOCCN1CCN(C2=Nc3ccccc3Sc3ccccc32)CC1` [quetiapine], in the data set on MDD/TRD subjects, the “rate of discontinuation due to adverse events in long-term study in MDD/TRD subjects” value is 23.7%.
Regarding `N[C@]1(c2ccccc2Cl)CCCCC1=O` [noresketamine], in data set [1] (across 28, 56 and 84 mg), the “mean ratio of noresketamine to esketamine, AUClast” value is reported as 3.62 to 4.32. For the same molecule, the “mean ratio of noresketamine to esketamine, AUC∞” value in data set [1] (across 28, 56 and 84 mg) is given as 3.80 to 4.46. In addition, in data set [1] (across 28, 56 and 84 mg), the “mean ratio of noresketamine to esketamine, Cmax” value was 1.96 to 2.55. For the same molecule, the “mean t1/2” value in data set [1] (across 28, 56 and 84 mg) was in the range of 7.48 to 7.74 h. Further, in data set [1] (across the 3 treatment groups), the “variability of AUC (AUClast and AUC∞)” value is reported as 17.0% to 21.3. In addition, the “variability of Cmax (percent coefficient of variation)” value in data set [1] (across the 3 treatment groups) is listed as 25.8% to 33.7. This molecule showed a median tmax in data set [1] (healthy subjects, across 28, 56 and 84 mg intranasal regimens) of 1.25 to 1.5 h. The AUClast in data set [1] (setting [4]) is 454 ng·h/mL; in data set [1] (setting [5]), 851 ng·h/mL; in data set [1] (setting [7]), 1287 ng·h/mL. For the same molecule, the “AUC∞” value in data set [1] (setting [4]) is 508 ng·h/mL; in data set [1] (setting [6]) it was 924^c h*ng/mL; in data set [1] (setting [8]), 1392^b h*ng/mL. The results for the t1/2 in data set [1] (setting [4]), in data set [1] (setting [6]) and in data set [1] (setting [8]) were 7.74 h, 7.71^c h and 7.48^b h, respectively. Further, the values for the tmax in data set [1] (setting [4]), in data set [1] (setting [5]) and in data set [1] (setting [7]) were 1.25 h, 1.50 h and 1.50 h, respectively. Moreover, the Cmax was 92.8 ng/mL in data set [1] (noresketamine in plasma after intranasal esketamine 28 mg (Treatment A)), 154 ng/mL in data set [1] (noresketamine in plasma after intranasal esketamine 56 mg (Treatment B)) and 241 ng/mL in data set [1] (noresketamine in plasma after intranasal esketamine 84 mg (Treatment C)). Also, the “Metabolite/Parent Ratio AUClast” value is given as 3.62 in data set [1] (esketamine 28 mg), 4.07 in data set [1] (esketamine 56 mg) and 4.32 in data set [1] (esketamine 84 mg). For the same molecule, the figures for the “Metabolite/Parent Ratio Cmax” value in data set [1] (esketamine 28 mg), in data set [1] (esketamine 56 mg) and in data set [1] (esketamine 84 mg) were 1.96, 2.28 and 2.55, respectively. Moreover, the “Metabolite/Parent Ratio AUC∞” value in data set [1] (esketamine 28 mg, n = 12) is listed as 3.80^b; in data set [1] (esketamine 56 mg, n = 12), 4.22^b; in data set [1] (esketamine 84 mg, n = 11), 4.46^d.
On to `C[C@]12N[C@H](Cc3ccccc31)c1ccccc12.O=C(O)/C=C\C(=O)O` [Positive control], for which, in data set [2] (setting [9]), the “Clinical observation incidence: Ataxia” value is 27/30 ***, the “Clinical observation incidence: Catalepsy” value is listed as 15/30 ***, the “Clinical observation incidence: Chromodacryorrhea” value was 24/30 *** and the “Clinical observation incidence: Decreased general activity” value is listed as 30/30 ***. For the same molecule, in data set [2] (setting [9]), the “Clinical observation incidence: Decubitus” value is on record as 30/30 ***, the “Clinical observation incidence: Increased general activity” value is 4/30, the “Clinical observation incidence: Narrowed palpebral fissure” value is on record as 4/30 and the “Clinical observation incidence: Piloerection” value is recorded as 8/30**. Besides, in data set [2] (setting [9]), the “Clinical observation incidence: Salivation (out of normal)” value was 17/30 *** and the “Clinical observation incidence: bradypnoea” value is recorded as 12/30 ***.
On to `NC1(c2ccccc2Cl)CCCCC1=O` (centres unmarked) [Norketamine], for which the “QC sample freeze/thaw stability” value in data set [3] (freeze (−20° C.)/thaw (ice-water bath)) is 3 freeze (−20° C.)/thaw (ice-water bath) cycles; in data set [3] (freeze (−20° C.)/thaw (room temperature)), 3 freeze (−20° C.)/thaw (room temperature) cycles. Besides, the “QC sample long-term storage stability” value in data set [3] (human plasma QC sample at −20° C.) worked out at 1552 days at −20 °C. In data set [3] (human plasma QC sample, room temperature), the “QC sample bench-top stability” value is listed as 68.5 hours at room temp. For the same molecule, the “Stock solution stability (spike solutions)” value in data set [3] (ketamine/norketamine spike solutions at −20° C.) is 610 days at −20 °C for ketamine/norketamine spike solutions. In data set [3] (room temperature), the Processed sample stability was 146.5 hours at room temperature. Further, in data set [3] (room temperature and ice-water bath (0-4° C.)), the “Whole Blood Stability” value is 120 minutes at room temperature and in an ice-water bath (0-4° C.). In addition, the Stock solution stability in data set [3] (stock solutions at room temperature under white light) came out at 6 h; in data set [3] (stock solutions at −20° C.), 15100 h.
For (+)MK-801 maleate [reference compound], the body weight loss in data set [2] (1 mg/kg sc, first 48 hours after treatment) is listed as 13-14%. The mortality entry in data set [2] (single sc dose 1 mg/kg, single and repeated dose studies) is “No mortality”.
